Reference: patent publication US20250212873A1, “VOLATILE HDAC INHIBITORS FOR THERAPEUTIC AND PLANT APPLICATIONS” (The Regents of the University of California, priority 2022, published 2025)
Entries after “also recorded” stand apart in the source; their conditions may differ. Counter-ions that a name gives are not always drawn.

Assays:
[1] = tested on: Arabidopsis thaliana seedlings; assay: Odor Exposure assay, Arabidopsis thaliana seedlings (root and leaf development); type: in vivo; conditions: for lateral root growth (number of lateral roots) / leaf development (number of large / true leaves) / root growth (primary root length): 7-day exposure; for lateral root growth (number of lateral roots) / leaf development (number of large / true leaves) / root growth: headspace of 1% v/v in Paraffin oil; for root growth (primary root length): headspace of solution in Paraffin oil; for root growth: 3.5-day exposure
Method: The Odor Exposure assay consists of controlled exposure of volatile odor compounds to model plant Arabidopsis within enclosed aquariums and similar growth conditions (23° C. with a 12-hour light/dark cycle). For Arabidopsis, seedlings were aligned on agar plates for growth after a 4-day cold treatment process. The agar plates with seedlings were then placed in enclosed aquariums with moist paper towels soaked in 10 ml of DI water for humidity. The plates were placed along the wall, approximately 12 cm from odor dispensers which resided in the center of the glass tank.
The test compound odor dispensers, consisting of (60×15 mm) polystyrene Petri dishes containing 2 ml of 1% v/v in PO, are replaced at the 3.5, 5, and 6-day time mark during the 7-day experiment. Root growth is marked during each time mark and the plates were imaged. The plants are to be collected after the 7-day exposure, photographed, and the leaves/roots carefully dissected separated, flash frozen in liquid nitrogen, and preserved for future sequencing. Root growth is measured using ImageJ.
In order to study the physiological effects of long-term exposure to microbial volatiles the model system Arabidopsis was exposed for […] to diacetyl, a volatile chemical emitted by fermentation by yeast or microbial degradation in the soil associated with roots (R. J. Morcillo et al., EMBO J 39, e102602 (2020); M. A. Farag, et al., Phytochemistry 67, 2262-2268 (2006); and C. M. Ryu et al., P Natl Acad Sci USA 100, 4927-4932 (2003). The Odor Exposure assay consisted of controlled exposure of volatile HDAC inhibiting compounds to model plant Arabidopsis within enclosed aquariums and similar growth conditions. The test compound odor cartridges, consisting of 60×15 mm polystyrene Petri dishes containing 2 ml of indicated concentration in Paraffin Oil, were replaced at the 3.5, 5, and 6-day time mark during the 7-day experiment (FIG. 1A, left). In separate experiments the weight loss from the odor cartridges over time was measured and used it to calculate the concentration of diacetyl in the glass chambers in parts per million (FIG. 1A, right).
In order to directly evaluate whether exposure to vapors of the four HDAC-inhibitory VOCs affect root development, we performed a set of experiments using A. thaliana seedlings as before. Solutions for each of the four chemicals on a small petri dish were placed away from the seedlings growing in agar plate and enclosed in glass tank. The Root tips were marked at specified days post treatment start and photographs analyzed. The plants were collected after the 7-day exposure, photographed, and the roots were separated. Detailed measurements were made from the photos using ImageJ and the root length and numbers of lateral roots quantified at day 3.5 and day 7 after start if the treatment (FIG. 1B).
The Odor Exposure assay consists of controlled exposure of volatile odor compounds to model plant Arabidopsis within enclosed aquariums and similar growth conditions (23° C. with a 12-hour light/dark cycle). The test compound odor cartridges, consisting of (60×15 mm) polystyrene Petri dishes containing 2 ml of 1% v/v in paraffin oil (PO), were replaced at the 3.5, 5, and 6-day time mark during the 7-day experiment. Root growth was marked during each time point and the plates were imaged. Numbers of true leaves were also counted. The plants are to be collected after the 7-day exposure, photographed, and the leaves/roots carefully dissected separated, flash frozen in liquid nitrogen, and preserved for future sequencing. Root growth is measured using ImageJ.

[2] = tested on: Class I and Class II HDACs; assay: In vitro assays with purified human Class I and II HDACs (panel statements); type: biochemical; conditions: 15 mM
Method: Presented are data for selected compounds that act as Histone deacetylase inhibitors in vitro or HDAC inhibitors. 26 compounds were screened against purified human HDACs.
HDAC activity of class I HDACs (HDAC1 and 3) was measured with the fluorometric HDAC Activity Assay kit: HDAC1 (10011563, Cayman Chemical, Ann Arbor, MI) and HDAC3 (50073 BPS Bioscience, San Diego, CA), according to the manufacturer's instructions. HDAC activity of class II HDACs (HDAC4 and HDAC6) was measured with the fluorometric HDAC Activity Assay kit: HDAC4, […] (50064 and 50076, BPS Bioscience, San Diego, CA), according to the manufacturer's instructions. All compounds were tested in single dose duplicate mode at 15 mM concentrations in 1% DMSO, based on the IC50 of 2,3-butanedione established in earlier work. Due to interference, concentrations of >30 mM were not used in the IC50 calculation. To account for any interference at lower concentrations, all baseline measurements of blank wells (no HDAC enzyme) were performed and subtracted with the various concentrations of 2,3-butanedione.
Diacetyl and 3 structurally related VOCs were evaluated using in vitro assay kits for measuring activity of four purified HDACs. Of the four VOCs), each has a different functional group, two are natural in origin, previously detected from microbes that are known to be present in soil (M. C. Lemfack et al., Nucleic Acids Res 46, D1261-D1265 (2018); and R. H. Cagan, W. N. Zeiger, Proc. Nat. Acad. Sci. U.S.A. 75, 4679-4683 (1978)) and two that are not (α-angelica lactone and ethyl pyruvate). […] All 4 VOCs inhibited both Class I HDACs (L. L. Walling, The Myriad Plant Responses to Herbivores. J Plant Growth Regul 19, 195-216 (2000); and M. Heil, R. Karban, Trends Ecol Evol 25, 137-144 (2010)) and the Class II HDAC6 with differences in degree (FIG. 2A,B).

[3] = tested on: A. thaliana plants (Col-0); assay: Flowering assay; type: in vivo, Arabidopsis thaliana; conditions: vapors from 0.1% solution
Description: Dramatic effects of VOCs have been seen in the seedling stage. The effects on with flowering timing were observed, since the process involves numerous changes in gene expression and therefore potentially susceptible to HDAC inhibitory volatiles. Mutants in HDACs like HDA5 show delayed flowering due to upregulation of flowering repressor genes like FLC and MAF1 (M. Luo et al., Plant J 82, 925-936 (2015)). Conversely, mutants in HDA9lead to early flowering due to increased expression of FLOWERING LOCUS T (FT) and AGAMOUS-LIKE 19 (AGL19) (M. J. Kang, et al., New Phytol 206, 281-294 (2015)). We placed 3 weeks old A. thaliana plants in the glass chambers and exposed them to the vapors of two of the VOCs, diacetyl and α-angelica lactone volatilizing from 0.1% solutions in the glass chamber.
Twenty-seven day old A. thaliana plants (Col-0), that had been transplanted at day 7 to soil, were placed in 10-gallon glass aquarium as chamber along with a petridish containing 2 ml of chemical dissolved in PO or PO alone were placed at the other side of the container. Plants were exposed to odors until all plants began to flower, with odor cartridges being replaced daily. Signs of flower buds opening were counted as plant flowering. One-way analysis of Variance (ANOVA) between groups was performed for plant exposure quantitative data using Graph Pad Prism 9.

[4] = tested on: PC3 Cancer cell line; assay: Cancer cell viability assay, PC3; type: cell-based; conditions: 33 uM, triplicates
Method: (§1) Cells were maintained in a 37° C. incubator with 5% CO2 throughout the experiment. Compound stocks were dissolved in 10% DMSO, but final concentrations were made fresh in complete media as needed. 10% DMSO solvent was used as control in complete media. Cells were seeded onto 12-well plates and allowed 12-24 hours until treatment began to allow cells to adhere to wells. This was followed by minimum 5-day treatment of compounds, changing the media with treatment every 48 hours. Cell lines A549, PC3, and SK-MEL-5 were seeded at 8000 cells/well which would provide 80-100% confluency after 6-day growth. SH-SY5Y was seeded at 8000 cells/well then 16,000 cells/well due to slower growth and given at least 10 days for sufficient growth. After allotted growth times, cell counts were performed via Countess™ automated cell counter. All assays were completed with a minimum of triplicate replicates for all conditions and analyzed through GraphPad Prism One-way ANOVA for significance.

[5] = tested on: SH-SY5Y Cancer cell line; assay: Cancer cell viability assay, SH-SY5Y; type: cell-based; conditions: 33 micro-molar
Method: as §1

[6] = tested on: bacteria and fungi; conditions: literature (Debebe et al.); cited from earlier work
[7] = tested on: A. thaliana plants (Col-0); assay: Weed killing assay; type: in vivo, Arabidopsis thaliana; conditions: 1% (volume/volume) in PO, 7 days vapor exposure, 4 weeks recovery
Description: Since large scale changes in gene expression occur it is presumed that higher doses of some of the compounds could negatively affect some plants, even causing death. Since Arabidopsis thaliana is also considered a type of weed and goes by the common name Thale cress, it was used as a model to test the weed killing potential at higher doses. In order to evaluate the activity of some of these volatiles in plant killing twenty-seven day old A. thaliana plants (Col-0), that had been transplanted at day 7 to soil, were placed in 10-gallon glass aquarium as chamber along with a petridish containing 2 ml of chemical dissolved in PO at 1% (volume/volume) or PO alone were placed at the other side of the container. Plants were exposed to odor vapors for 7 days and observed for death.
Twenty-seven day old A. thaliana plants (Col-0), that had been transplanted at day 7 to soil, were placed in 10-gallon glass aquarium as chamber along with a petridish containing 2 ml of chemical dissolved in PO at 1% (volume/volume) or PO alone were placed at the other side of the container. Plants were exposed to odor vapors for 7 days and observed for death.

[8] = tested on: histone deacetylase enzymes (HDACs); conditions: literature (Shimazu et al.); cited from earlier work
[9] = listed as Alpha angelica lactone

With `CCC(=O)C(=O)CC` [3,4-hexanedione] the “lateral root growth (number of lateral roots)” value (“lateral root growth” for short) [1] was “significant phenotypic changes; also recorded: promoted lateral root growth”, the “leaf development (number of large / true leaves)” value [1] was “changes in the number of true leaf development/growth; also recorded: significant increase; also recorded: significant phenotypic changes; also recorded: The trend for the compounds were to inhibit leave development, except for 3,4-hexanedione” and the “root growth (primary root length)” value [1] was “all the compounds except 3,4-hexanedione demonstrated significant root growth inhibition”.
For `CC1=CCC(=O)O1` [alpha angelica lactone], the “inhibition of Class II HDACs compared with Class I” value [2] was “inhibits only Class 2 HDACs strongly”, the “inhibition of Class II HDACs compared with Class I” value ([2]; listed as α-angelica lactone) was “inhibited Class II HDACs more strongly than Class I” and the root growth [1] was “significant root growth inhibition”. The “lateral root growth” value [1, 9] was “significant phenotypic changes; also recorded: promoted lateral root growth”, the “leaf development (number of large / true leaves)” value [1, 9] was “significant phenotypic changes” and the “leaf development (number of large / true leaves)” value ([1]; listed as a-angelica lactone) was “significant decreases”. The “leaf development (number of large / true leaves)” value ([1]; listed as α-Angelica lactone) was “changes in the number of true leaf development/growth” and the “delay in flowering (in words)” value [3] was “approximately a week”.
For `CCOC(=O)C(C)=O` [ethyl pyruvate], the root growth [1] was “significant root growth inhibition”, the “lateral root growth” value [1] was “inhibition; also recorded: significant phenotypic changes” and the “lateral root growth” value ([1]; listed as Ethyl pyruvate) was “inhibited”. For the same compound, the “root growth (primary root length)” value [1] was “inhibited”, the “changes in proliferation, PC3” value [4] was “No Significant changes in proliferations” and the “changes in proliferation, SH-SY5Y” value [5] was “Significant changes in proliferations were noted only for 33 micro molar 2,3-butanedione treatment”. For the same compound, the “antimicrobial action on bacteria and fungi” value [6] was “potent antimicrobial”.
For `CCCOC=O` [propyl formate], the “plants killed (dead)” value [7] was 7 of 8, the “changes in proliferation, PC3” value [4] was “No Significant changes in proliferations” and the “changes in proliferation, SH-SY5Y” value [5] was “Significant changes in proliferations were noted only for 33 micro molar 2,3-butanedione treatment”.
In the case of `CC(O)CC(=O)O` (stereo not drawn) [β-hydroxybutyrate], the “inhibition of histone deacetylase enzymes (HDACs)” value [8] is listed as “known inhibitor”.
